# Patent publication US20140154337A1, “ANTIMICROBIAL AGENTS AND METHODS FOR USE THEREOF IN THE ABATEMENT OF FOOD BORNE PATHOGENIC ORGANISMS” (priority 2011, published 2014)
# Test system: Escherichia coli ATCC strain number 8739
# Assay: Enteral antimicrobial laboratory evaluation: inoculated tryptic soy agar plates sprayed with test mixture, enumerated after three days
# Type: cell-based
# Conditions: TSA plates sprayed, phosphoric acid added to pH approximately 3.2 simulating mammalian stomach
# Procedure: In particular, testing was conducted as follows:
# Six (6) identical conventional tryptic soy agar (“TSA”) plates were inoculated with Escherichia coli of the ATCC strain number 8739, which, as previously discussed, is a feces derived strain typical of that expected in the applications of the present invention.
# The inoculated plates were then separated into three (3) groups of two (2) plates each, which groups were treated as follows: • a. […] Group III was sprayed with purified water only (in order to establish a negative control for the evaluation).
compound,measurement,value
"O=P(O)(O)O [phosphoric acid solution, phosphoric acid]",growth of Escherichia coli,only a minor reduction in the growth
